For assay [1] the following is noted: lowering of blood pressure, hyperglycemic activity, inhibitory action on central nervous system; cited from earlier work.
Assay [2] has as its system castor-oil-induced diarrhea. Description: Castor oil-induced diarrhea in rats. The following applies: Rattus norvegicus, po, 4 h, read-out: Castor Oil ID50 (mg/kg)-4 hr.

Structures can show the parent of a compound that is named as a salt.

Turning to `Clc1cccc(Cl)c1N=C1CCCN1` [2-(2,6-dichloroophenylimino)pyrrolidine], the “pharmacodynamic activity in words” value in assay [1] is on record as “pharmacodynamically active”.

Take `CCOC(=O)Nc1ccc(NC2=NCCC2)c(C)c1.Cl` [Example 23, 2-[(2-Methyl-4-(ethoxycarbonylamino)phenyl)-amino]-1-pyrroline, hydrochloride]: in assay [2], the ED50 came to 1.81 mg/kg.

For the compound `CC(=O)Nc1ccc(NC2=NCCC2)c(C)c1` [Example 16, 2-[(2-Methyl-4-acetamidopheny)amino]-1-pyrroline, hydrochloride], the ED50 in assay [2] was determined as 3.63 mg/kg.

In the case of `Cc1cc(N)ccc1NC1=NCCC1.Cl.Cl` [Example 9, 2-[(2-Methyl-4-aminophenyl)amino]-1-pyrroline, dihydrochloride], in assay [2], the ED50 came out at 0.97 mg/kg.

`CCC(=O)Nc1ccc(NC2=NCCC2)c(C)c1.Cl` [Example 18, 2-[(2-Methyl-4-(propanamido)phenyl)amino]-1-pyrroline, hydrochloride]: the ED50 in assay [2] was 0.97 mg/kg.

On to `Cc1cc(N)cc(C)c1NC1=NCCC1.Cl.Cl` [Example 11, 2-[(2,6-Dimethyl-4-aminophenyl)amino]-1-pyrroline, dihydrochloride], for which the ED50 in assay [2] came to 13.6 mg/kg.
